What is called CC50 is the concentration giving 50% cytotoxicity. A higher CC50 goes with lower toxicity to the cells.

From article PMC6792352, “Limited Chemical Structural Diversity Found to Modulate Thyroid Hormone Receptor in the Tox21 Chemical Library” (Environmental Health Perspectives, 2019) come the findings set out here.

Structures can show the parent of a compound that is named as a salt. Non-standard residues stand in square brackets, D forms with d. Residues, ends and D or L forms follow the SMILES beside them. Orn = NCCC[C@H](N)C(=O)O

The nature of this data set: in vitro. The following applies: rat, gh3-tre-luc cells.

On to `CC(C)C[C@@H]1NC(=O)[C@H](CCCN)NC(=O)[C@H](C(C)C)NC(=O)[C@@H]2CCCN2C(=O)[C@@H](Cc2ccccc2)NC(=O)[C@H](CC(C)C)NC(=O)[C@H](CCCN)NC(=O)[C@H](C(C)C)NC(=O)[C@@H]2CCCN2C(=O)[C@@H](Cc2ccccc2)NC1=O` [Gramicidin S] (cyclo(L[dF]PV[Orn]L[dF]PV[Orn])), for which the CC50 at 24 h (AC50 (uM) modified / 1000) was found to be 3.05 µM.
Consider `OCCN1CCN(CCO)CC1` [1,4-Piperazinediethanol], for which the CC50 at 24 h (AC50 (uM) modified / 1000) is over 90 µM.
On the same count and under the same terms, in the case of `CN1CCN(C(=O)C2CCCCC2)CC1` [Pexantel] it was over 50 µM; in that of `C[Si](C)(C)O[Si](C)(C)C` [Hexamethyldisiloxane], over 90 µM.
Consider `S=C=NCCc1ccccc1` [Phenethyl isothiocyanate], for which the CC50 at 24 h (AC50 (uM) modified / 1000) worked out at 79.7 µM.
On the same count and under the same terms, in the case of `COc1ccc(CCN(C)CCCN2CCc3cc(OC)c(OC)cc3CC2=O)cc1OC` [Zatebradine hydrochloride] it was over 50 µM; in that of `CCOC(=O)c1ccc(C#Cc2ccc3c(c2)C(C)(C)CCS3)nc1` [Tazarotene], over 50 µM; in that of `O=P(O)(O)C(O)(Cn1ccnc1)P(=O)(O)O` [Zoledronate], over 50 µM.
The same measure, in the same setting: the result for `CCCCCC1Nc2cc(C(F)(F)F)c(S(N)(=O)=O)cc2S(=O)(=O)N1` (centres unmarked) [Penflutizide] reads over 50 µM; that for `CC[C@H]1C[C@H]2[C@@H]3CCC4=CC(=O)CC[C@@H]4[C@H]3CC[C@]2(C)[C@H]1O` [Oxendolone], over 50 µM.
Still for that read-out and setting: the result for `C#C[C@]1(O)CC[C@H]2[C@@H]3CCC4=CC(=O)CC[C@@H]4[C@H]3C(=C)C[C@@]21CC` [Etonogestrel] reads over 50 µM; that for `O=[N+]([O-])c1c2ccccc2cc2ccccc12` [9-Nitroanthracene], over 90 µM.
Consider `Cc1nc(N(C)C)nc(OC(=O)N(C)C)c1C` [Pirimicarb], for which the CC50 at 24 h (AC50 (uM) modified / 1000, Tox21_110001=Tox21_301003, viability, 1 nM T3 present, 24 h) is over 90 µM.
Under “AC50 (uM) modified / 1000”, `CCOC(=O)CC1(C)OCC(C)O1` (centres unmarked) [Ethyl 2,4-dimethyl-1,3-dioxolane-2-acetate] showed a CC50 at 24 h of over 90 µM.
The same measure, in the same setting: the result for `C[n+]1cc2c3c(ccc2c2ccc4cc5c(cc4c21)OCO5)OCO3` [Sanguinarine] reads 2.9 µM; that for `O=[N+]([O-])c1cccc2ccccc12` [1-Nitronaphthalene], over 90 µM; that for `O=C(Nc1ccccc1)c1cc(Cl)ccc1O` [5-Chlorosalicylanilide], 7.85 µM.
On the same count and under the same terms, in the case of `O=C1CCC(N2C(=O)c3ccccc3C2=O)C(=O)N1` (centres unmarked) [Thalidomide] it was over 90 µM.
On the same count and under the same terms, in the case of `CCc1ccccc1` [Ethylbenzene] it was over 90 µM; in that of `Cc1cccc(C)c1NC(=O)/N=C1\CCCN1C` [Xilobam], over 50 µM.
Consider `CCCC[C@H]1CN(CC2CCOCC2)C(=O)OC12CCN(C1(C)CCN(C(=O)c3c(C)ncnc3C)CC1)CC2` [PharmaGSID_48521], for which the CC50 at 24 h (AC50 (uM) modified / 1000) is over 80 µM.
With `O=C(O)CC[N+](=O)[O-]` [3-Nitropropionic acid], under “AC50 (uM) modified / 1000, Tox21_110001=Tox21_202460, viability, 1 nM T3 present, 24 h”, the half-maximal cytotoxic concentration (CC50) at 24 h is over 90 µM.
Where the note is “AC50 (uM) modified / 1000”, `c1ccc2c(c1)ccc1cc3c(ccc4ccccc43)cc12` [Dibenz(a,h)anthracene] had a CC50 at 24 h of over 50 µM.
As for `CCC(C)c1nccnc1OC` (centres unmarked) [2-sec-Butyl-3-methoxypyrazine], the CC50 at 24 h (AC50 (uM) modified / 1000) was over 90 µM.
In the case of `COP(=O)(OC)OC(Br)C(Cl)(Cl)Br` (centres unmarked) [Naled], the CC50 at 24 h is, setting by setting: (AC50 (uM) modified / 1000, Tox21_110001=Tox21_201641, viability, 1 nM T3 present, 24 h) 48.7 µM; (AC50 (uM) modified / 1000, Tox21_110001=Tox21_300845, viability, 1 nM T3 present, 24 h) 49.1 µM.
Under “AC50 (uM) modified / 1000, Tox21_110001=Tox21_300810, viability, 1 nM T3 present, 24 h”, `CCOC(=O)Cc1ccccc1` [Ethyl phenylacetate] displayed a CC50 at 24 h of over 90 µM.
Under “AC50 (uM) modified / 1000”, `COc1ccc(CCNCC(O)COc2cccc(C)c2)cc1OC` (centres unmarked) [Bevantolol hydrochloride] registered a CC50 at 24 h of 20.6 µM.
Regarding `Cc1cc(OI)c(C(C)C)cc1-c1cc(C(C)C)c(OI)cc1C` [Thymol iodide], where the note is “AC50 (uM) modified / 1000”, the CC50 at 24 h was over 50 µM.
`Cc1cc(O)c(C(C)(C)C)cc1Sc1cc(C(C)(C)C)c(O)cc1C` [4,4'-Thiobis(6-tert-butyl-m-cresol)] displayed a CC50 at 24 h (AC50 (uM) modified / 1000) of 3.64 µM.
The same measure, in the same setting: the result for `CN1CC(O)C2=C/C(=N/NC(N)=O)C(=O)C=C21` (centres unmarked) [Carbazochrome] reads over 50 µM.
On the same count and under the same terms, the result for `CC(C)(N)CO` [2-Amino-2-methylpropan-1-ol] reads over 90 µM; that for `NC(=O)Nc1ccc(Cl)c(Cl)c1` [3,4-Dichlorophenylurea], over 90 µM.
Same read-out and setting: in the case of `CCCc1c(OCCCCc2nnn[nH]2)ccc(C(C)=O)c1O` [Tomelukast] it was over 50 µM; in that of `Cc1cc(C)c(C)cc1C` [1,2,4,5-Tetramethylbenzene], over 90 µM.
Consider `CC/C=C\CC/C=C/C=O` [trans-2,cis-6-Nonadienal], for which, where the note is “AC50 (uM) modified / 1000”, the CC50 at 24 h was over 90 µM.
Take `O=C(O)COc1nn(Cc2ccccc2)c2ccccc12` [Bendazac sodium]: the CC50 at 24 h (AC50 (uM) modified / 1000) is over 50 µM.
Still for that read-out and setting: in the case of `CCOCCC(=O)OCC` [Ethyl 3-ethoxypropionate] it was over 100 µM.
The same measure, in the same setting: the result for `CCCCCCCCCCCCCCCCCC(=O)OCC(CC)CCCC` (centres unmarked) [2-Ethylhexyl octadecanoate] reads over 90 µM; that for `CC(C)(c1ccccc1)c1ccc(Nc2ccc(C(C)(C)c3ccccc3)cc2)cc1` [4-(2-Phenylpropan-2-yl)-N-[4-(2-phenylpropan-2-yl)phenyl]aniline], over 90 µM; that for `CCNc1nc(NC(C)C)nc(OC)n1` [Atraton], over 90 µM.
Still for that read-out and setting: the result for `Cc1scc2c1N(C(=O)CN1CCN(C)CC1)c1ccccc1NC2=O` [Telenzepine] reads over 50 µM.
Turning to `NNc1nc(-c2ccc(N)cc2)cs1` [2-Hydrazino-4-(4-aminophenyl) thiazole], the CC50 at 24 h (AC50 (uM) modified / 1000) amounted to 74.8 µM. That is a double-digit micromolar value.
On the same count and under the same terms, the result for `COc1cc(-c2ccc(=O)[nH]n2)ccc1OC(F)F` [Zardaverine] reads over 50 µM; that for `CC(C)C1(C)N=C(c2nc3ccccc3cc2C(=O)O)NC1=O` (centres unmarked) [Imazaquin], over 90 µM; that for `O=C(O)c1ccc(C(=O)O)c(C(=O)O)c1` [1,2,4-Benzenetricarboxylic acid], over 90 µM.
For the compound `C#CCC1=C(C)C(OC(=O)C2C(C=C(C)C)C2(C)C)CC1=O` (centres unmarked) [Prallethrin], the cytotoxic concentration (CC50) at 24 h (AC50 (uM) modified / 1000) was determined as 66.6 µM.
`CCCN(CCCl)c1c([N+](=O)[O-])cc(C(F)(F)F)cc1[N+](=O)[O-]` [Fluchloralin] yielded a CC50 at 24 h (AC50 (uM) modified / 1000, Tox21_110001=Tox21_301333, viability, 1 nM T3 present, 24 h) of over 90 µM.
Consider `CC(=O)OCC(=O)[C@@]12OC(C)(C)O[C@@H]1C[C@H]1[C@@H]3C[C@H](F)C4=CC(=O)C=C[C@]4(C)[C@@]3(F)[C@@H](O)C[C@@]12C` [Fluocinonide], for which the cytotoxic concentration (CC50) at 24 h (AC50 (uM) modified / 1000) is over 20 µM.
On the same count and under the same terms, in the case of `OC[C@@H](O)[C@@H](O)[C@H](O)[C@@H](O)CO` [D-Glucitol] it was over 90 µM; in that of `O=C(O)c1ccccc1C(c1ccc(O)cc1)c1ccc(O)cc1` [Phenolphthalin], over 90 µM.
The same measure, in the same setting: in the case of `ClC1C(Cl)C(Cl)C(Cl)C(Cl)C1Cl` (stereo not drawn) [alpha-1,2,3,4,5,6-Hexachlorocyclohexane] it was over 90 µM.
The same measure, in the same setting: in the case of `O=C(O)P(=O)(O)O` [Foscarnet trisodium] it was over 50 µM.
Consider `CCN1CCOCC1` [N-Ethylmorpholine], for which the CC50 at 24 h (AC50 (uM) modified / 1000) was over 90 µM.
Still for that read-out and setting: the result for `CCCC[N+]1(C)CCCCC1` [1-Butyl-1-methylpiperidinium tetrafluoroborate] reads over 90 µM; that for `CC(C)=CCCC(C)C=O` (centres unmarked) [2,6-Dimethylhept-5-enal], over 90 µM; that for `CC(CCc1ccccc1)NC(C)C(O)c1ccc(O)cc1` (centres unmarked) [Nylidrin], 41.8 µM.
Under “AC50 (uM) modified / 1000”, `Cc1cc2c3c(c1)C(c1ccccc1)=N[C@@H](NC(=O)c1ccncc1)C(=O)N3CC2` [CI-1018] showed a CC50 at 24 h of over 90 µM.
On the same count and under the same terms, in the case of `CCCSC(=O)Cl` [S-(Propyl) chlorothioformate] it was over 90 µM; in that of `COC(C)(OC)OC` [1,1,1-Trimethoxyethane], over 90 µM; in that of `CCCCC(CC)COS(=O)(=O)O` (centres unmarked) [Sodium ethasulfate], over 90 µM.
`CC(=O)CC(=O)OC(C)(C)C` [tert-Butyl 3-oxobutanoate] gave a CC50 at 24 h (AC50 (uM) modified / 1000) of over 90 µM.
As to `Nc1cccc(Cl)c1` [3-Chloroaniline], for the setting “AC50 (uM) modified / 1000”, the CC50 at 24 h is over 90 µM.
On the same count and under the same terms, in the case of `C=C(C)C(=O)OCCOCC` [2-Ethoxyethyl methacrylate] it was over 90 µM.
Still for that read-out and setting: the result for `CCOC(=O)c1cnc2c(cnn2CC)c1NN=C(C)C` [Etazolate hydrochloride] reads over 50 µM.
Consider `C[C@H]1N=C(N)O[C@H]1c1ccccc1` (stereo in doubt) [(4R,5S)-4-methyl-5-phenyl-4,5-dihydro-1,3-oxazol-2-amine], for which the CC50 at 24 h (AC50 (uM) modified / 1000, Tox21_110001=Tox21_112818, viability, 1 nM T3 present, 24 h) was over 90 µM.
In turn, `CCCNC(=O)NS(=O)(=O)c1ccc(Cl)cc1` [Chlorpropamide] showed a CC50 at 24 h (AC50 (uM) modified / 1000) of over 90 µM.
The same measure, in the same setting: the result for `CC(O)CCCCn1c(=O)c2c(ncn2C)n(C)c1=O` (racemic) [(+/-)-Lisofylline] reads over 50 µM.
Turning to `C[C@]12CC[C@H]3[C@@H](CCC4=C(Cl)C(=O)CC[C@@]43C)[C@@H]1CC[C@@H]2O` [Clostebol], the half-maximal cytotoxic concentration (CC50) at 24 h (AC50 (uM) modified / 1000, Tox21_110001=Tox21_111857, viability, 1 nM T3 present, 24 h) is over 50 µM.
In the case of `C[C@]12CC[C@@H]3c4ccc(OC(=O)N(CCCl)CCCl)cc4CC[C@H]3[C@@H]1CC[C@@H]2O` [Estramustine], where the note is “AC50 (uM) modified / 1000, Tox21_110001=Tox21_112207, viability, 1 nM T3 present, 24 h”, the CC50 at 24 h was over 50 µM.
`CCCCSP(=O)(SCCCC)SCCCC` [Tribufos]: the CC50 at 24 h (AC50 (uM) modified / 1000, Tox21_110001=Tox21_201934, viability, 1 nM T3 present, 24 h) was over 90 µM.
